{
  "source": "patent US20260242829A1",
  "about": "“Use of Inhibitors to Increase Efficiency of CRISPR/Cas Insertions” (ASTRAZENECA AB, priority 2023, published 2026)",
  "test_system": "HEK293T cells",
  "assay": "Effect of MMEJ and NHEJ inhibitors on CRISPR-Cas-induced double-strand break repair pathways and editing efficiency (amplicon sequencing, RIMA2)",
  "format": "cell-based",
  "details": "AZD7648 (1 µM) alone and in combination with Compound 1 at indicated concentrations, CRISPR/Cas9-mediated gene targeting, FIG. 4",
  "experimental": "The effect of inhibitors of the MMEJ and NHEJ pathways on CRISPR-Cas-induced DNA double stranded break repair pathways was examined using the process shown schematically in FIG. 2A. Briefly, HEK293T cells were seeded into a 96-well plate 20 hours before transfection with plasmids encoding SpCas9 and a guide RNA (sgRNA) targeting CD34 in the presence and absence of single-stranded oligonucleotide donor (ssDNA). Two hours prior to transfection, the cells were submitted to inhibitor treatments, including the following conditions: a) 1 μM DNAPK inhibitor AZD7648 b) 1 μM DNAPK inhibitor AZD7648 in combination with compound 1, which was titrated in a 1:2 dilution series, ranging between 10 μM and 0.01 μM and corresponding DMSO control. Seventy hours post-transfection, cell confluence and eGFP-based transfection efficiencies were determined with the Incucyte SX5. Genomic DNA was extracted and editing outcome was analysed through deep-targeted amplicon sequencing and RIMA2 analysis (FIG. 2A) to determine knock-in frequencies as well as mutagenic DNA repair events, such as NHEJ and MMEJ outcomes (FIG. 2B).",
  "data": [
    {"smiles": "Cc1cc2ncnn2cc1Nc1ncc2c(n1)n(C1CCOCC1)c(=O)n2C", "note": "[AZD7648]", "values": [
      {"measurement": "DNA double strand break repair pathway used after CRISPR/Cas gene targeting", "value": "results in DNA double strand break repair by the more precise HDR pathway, and minimizes the contribution from the more error-prone MMEJ and NHEJ pathways"}
    ]},
    {"smiles": "CN1CCN(CCOc2ccc(-c3nc4c(OC5(C)CC5)ncnc4n3Cc3ccccc3)c(Cl)c2)CC1", "note": "[Compound 1, 9-Benzyl-8-(2-chloro-4-(2-(4-methylpiperazin-1-yl)ethoxy)phenyl)-6-(1-methylcyclopropoxy)-9H-purine]", "values": [
      {"measurement": "DNA double strand break repair pathway used after CRISPR/Cas gene targeting", "value": "results in DNA double strand break repair by the more precise HDR pathway, and minimizes the contribution from the more error-prone MMEJ and NHEJ pathways"}
    ]}
  ]
}
